Where two headings read alike, the source gives them in different places.
Assays:
[1] = target: T1, elastase derived from human sputum (HSE) (Homo sapiens, UniProt P08246); assay: In vitro inhibition of elastase (ONO-PO series); type: biochemical; conditions: substrate N-methoxysuccinyl-Ala-Ala-Pro-Val-p-nitroaniline, 37° C., pH 8.0, IC50 converted to Ki by Dixson plot
T1 construct: prepared from commercially available HSE (875 U/mg protein, SE-563, Elastin Product Co., Inc., Missouri, USA); purchased Elastin Product Co., Inc., Missouri, USA SE-563; host or cells: human sputum (natural enzyme)
T1 sequence (P08246 30-247 limits assumed): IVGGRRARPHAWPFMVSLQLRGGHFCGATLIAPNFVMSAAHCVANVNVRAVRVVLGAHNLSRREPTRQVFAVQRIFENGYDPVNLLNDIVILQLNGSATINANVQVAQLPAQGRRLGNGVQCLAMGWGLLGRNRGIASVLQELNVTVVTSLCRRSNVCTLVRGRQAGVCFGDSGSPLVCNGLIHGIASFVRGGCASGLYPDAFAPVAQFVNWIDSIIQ

[2] = target: T2, human neutrophil elastase (HNE) (Homo sapiens, UniProt P08246); assay: HNE Ki of CE compounds, tested as described in WO 96/16080; type: biochemical
T2 sequence (P08246 30-267): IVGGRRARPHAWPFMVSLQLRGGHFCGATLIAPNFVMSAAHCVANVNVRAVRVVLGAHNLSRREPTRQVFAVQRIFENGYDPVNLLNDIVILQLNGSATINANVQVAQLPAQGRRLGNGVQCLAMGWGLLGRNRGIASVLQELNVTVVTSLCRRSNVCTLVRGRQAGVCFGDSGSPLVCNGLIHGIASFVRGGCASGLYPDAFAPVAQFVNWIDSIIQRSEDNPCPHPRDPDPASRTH

[3] = test system: polymorphoneucleocyte (PMN); assay: Extracellular Matrix (ECM) degradation assay; type: cell-based; conditions: PMN's stimulated with opsonized zymosan, 4 hr at 37° C.; for inhibition at 1 µM / ECM DATA % Inhibition 1 uM: 1 uM inhibitor; for inhibition at 5 µM / ECM DATA % Inhibition 5 uM: 5 uM inhibitor
Outline: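 Radiolabelled ([35S]sulfate/[3H]proline) ECM from R22 rat smooth muscle cells preincubated 30 min with 1 or 5 uM inhibitor in HBSS (<2% DMSO). PMNs (5×10^5/well) stimulated with serum-opsonized zymosan (10 particles/PMN), 4 h at 37 °C. Degradation = released over total ECM counts, minus PMN-free basal release.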

[4] = Blood level screening after oral dose; type: in vivo, Sprague-Dawley rats; conditions: rat, oral gavage 10 mg/kg; for concentration at 1 h: read-out: Plasma Levels (μM) 1 hr; for concentration at 3 h: read-out: Plasma Levels (μM) 3 hr
Outline: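 Unfasted male Sprague-Dawley rats received 10 mg/kg by oral gavage in PEG, PEG-400 or PEG:H2O:EtOH. Plasma was solvent-extracted and the inhibitor measured by HPLC or LC/MS.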

Row | Molecule | Ki [1] [nM] | Ki ([2]; read-out: HNE Ki) [nM] | ECM DATA % Inhibition 1 uM [3] [%] | ECM DATA % Inhibition 5 uM [3] [%] | Plasma Levels (μM) 3 hr [4] [µM] | further results
1 | CC(C)[C@H](NC(=O)Cn1c(-c2ccccc2)ncc(N)c1=O)C(=O)c1nnc(C2(C)CC2)o1 [ONO-PO-728, 2-[5-Amino-6-oxo-2-phenyl-1,6-dihydro-1-pyrimidinyl]-N-[1-(2-[5-(1-methylcyclopropyl)-1,3,4-oxadiazolyl]carbonyl)-2-(S)-methylpropyl]acetamide] | 8.75 |  |  |  |  | 
2 | CC(C)[C@H](NC(=O)CN1C(=O)CN=C(c2ccc(Cl)cc2)c2ccccc21)C(=O)c1nnc(C(C)(C)C)o1 [ONO-PO-717, 2-Oxo-5-(4-chlorophenyl)-1,4-benzodiazepine-N-[1-(2-[5-tert-butyl-1,3,4-oxadiazolyl]carbonyl)-2-(S)-methylpropyl]acetamide] | 57.8 |  |  |  |  | 
3 | CC(C)[C@H](NC(=O)Cn1c(-c2ccc(F)cc2)nccc1=O)C(=O)c1nnc(C2(C)CC2)o1 [ONO-PO-734, 2-[6-Oxo-2-(4-fluorophenyl)-1,6-dihydro-1-pyrimidinyl]-N-[1-(2-[5-(1-methylcyclopropyl)-1,3,4-oxadiazolyl]carbonyl)-2-(S)-methylpropyl]acetamide] | 43.8 |  |  |  |  | 
4 | CC(C)C[C@@H]1NC(=O)N(CC(=O)N[C@H](C(=O)c2nnc(C(C)(C)C)o2)C(C)C)C1=O [ONO-PO-708, 4-(S)-(2-Isobutyl)-2,5-imidazolidinedione-N-[1-(2-[5-tert-butyl-1,3,4-oxadiazolyl]carbonyl)-2-(S)-methylpropyl]acetamide] | 730 |  |  |  |  | 
5 | CC(C)[C@H](NC(=O)Cn1c(-c2ccc(F)cc2)ncc(NC(=O)OCc2ccccc2)c1=O)C(=O)c1nnc(C(C)(C)C)o1 [ONO-PO-698, 2-[5-(Benzyloxycarbonyl)amino-6-oxo-2-(4-fluorophenyl)-1,6-dihydro-1-pyrimidinyl]-N-[1-(2-[5-tert-butyl-1,3,4-oxadiazolyl]carbonyl)-2-(S)-methylpropyl]acetamide] | 0.77 |  |  |  |  | 
6 | CC(C)c1nnc(C(=O)[C@@H](NC(=O)Cn2c(-c3ccc(F)cc3)ncc(N)c2=O)C(C)C)o1 [ONO-PO-705, 2-[5-Amino-6-oxo-2-(4-fluorophenyl)-1,6-dihydro-1-pyrimidinyl]-N-[1-(2-[5-isopropyl-1,3,4-oxadiazolyl]carbonyl)-2-(S)-methylpropyl]acetamide] | 10.7 |  |  |  |  | 
7 | CC(C)[C@@H](NC(=O)Cn1c(-c2ccccc2)nccc1=O)C(=O)c1nnc(C(C)(C)C)o1 [ONO-PO-732, 2-[6-Oxo-2-phenyl-1,6-dihydro-1-pyrimidinyl]-N-[1-(2-[5-tert-butyl-1,3,4-oxadiazolyl]carbonyl)-2-(R)-methylpropyl]acetamide] | 62.2 |  |  |  |  | 
8 | CC(C)[C@H](NC(=O)Cn1c(-c2ccc(F)cc2)ncc(N)c1=O)C(=O)c1nnc(-c2cccnc2)o1 [ONO-PO-695, 2-[5-Amino-6-oxo-2-(4-fluorophenyl)-1,6-dihydro-1-pyrimidinyl]-N-[1-(2-[5-(3-pyridyl)-1,3,4-oxadiazolyl]carbonyl)-2-(S)-methylpropyl]acetamide] | 13.9 |  |  |  |  | 
9 | CCCCc1nnc(C(=O)[C@@H](NC(=O)Cn2c(-c3ccc(F)cc3)ncc(N)c2=O)C(C)C)o1 [ONO-PO-706, 2-[5-Amino-6-oxo-2-(4-fluorophenyl)-1,6-dihydro-1-pyrimidinyl]-N-[1-(2-[5-butyl-1,3,4-oxadiazolyl]carbonyl)-2-(S)-methylpropyl]acetamide] | 6.76 |  |  |  |  | 
10 | CC(C)[C@H](NC(=O)CN1C(=O)N[C@H](Cc2c[nH]c3ccccc23)C1=O)C(=O)c1nnc(C(C)(C)c2ccccc2)o1 [ONO-PO-724, 4-(R)-(3-Indolemethylene)-2,5-imidazolidinedione-N-[1-(2-[5-(α,α-dimethylbenzyl)-1,3,4-oxadiazolyl]carbonyl)-2-(S)-methylpropyl]acetamide] | 14.4 |  |  |  |  | 
11 | Cc1cccc(Cc2nnc(C(=O)[C@@H](NC(=O)CN3C(=O)CN=C(c4ccccn4)c4ccccc43)C(C)C)o2)c1 [CE2217, 2-Oxo-5-(2-pyridyl)-1,4-benzodiazepine-N-[1-(2-[5-(3-methylbenzyl)-1,3,4-oxadiazolyl]carbonyl)-2-(S)-methylpropyl]acetamide] |  |  |  |  |  | Ki ([2]; HNE Ki (nM)): 5.5 nM; inhibition at 1 µM [3]: 28.1%; inhibition at 5 µM [3]: 41.2%; concentration at 1 h ([4]; male, Sprague-Dawley, plasma): 1.99 µM; concentration at 3 h ([4]; male, Sprague-Dawley, plasma): 0.521 µM
12 | COC(=O)CCC[C@H]1NC(=O)N(CC(=O)N[C@H](C(=O)c2nnc(Cc3cccc(C)c3)o2)C(C)C)C1=O [CE2249, 4-(R)-(3-Carbomethoxy)propyl-2,5-imidazolidinedione-N-[1-(2-[5-(3-methylbenzyl)-1,3,4-oxadiazolyl]carbonyl)-2-(S)-methylpropyl]acetamide] |  | 13 | 22.4 | 42.4 | 0.704 | Plasma Levels (μM) 1 hr [4]: 1.179 µM; Plasma Levels (μM) 6 hr ([4]; 6 hr): 0.213 µM
13 | Cc1cccc(Cc2nnc(C(=O)C(NC(=O)CN3C(=O)C(c4ccccc4)N(C)C3=O)C(C)C)o2)c1 [CE2179, 5-(R,S)-Phenyl-1-methyl-2,4-imidazolidinedione-N-[1-(2-[5-(3-methylbenzyl)-1,3,4-oxadiazolyl]carbonyl)-2-(S)-methylpropyl]acetamide] |  | 7.6 |  |  |  | inhibition at 1 µM [3]: 48.8%; inhibition at 5 µM [3]: 45.9%; concentration at 1 h ([4]; male, Sprague-Dawley, plasma): 1.23 µM; concentration at 3 h ([4]; male, Sprague-Dawley, plasma): 0.599 µM
14 | 2-[(4-Fluorophenyl)-1,6-dihydro-1-pyrimidinyl]-N-[1-(2-[5-(3-methylbenzyl)-1,3,4-oxadiazolyl]carbonyl)-2-(S)-methylpropyl]acetamide [CE2254] |  | 2.4 | 57.2 | 58.4 | 1.575 | Plasma Levels (μM) 1 hr [4]: 1.751 µM; Plasma Levels (μM) 6 hr ([4]; 6 hr): 2.316 µM
15 | Cc1cccc(Cc2nnc(C(=O)[C@@H](NC(=O)CN3C(=O)NC(C)(C)C3=O)C(C)C)o2)c1 [CE2239, 4,4-Dimethyl-2,5-imidazolidinedione-N-[1-(2-[5-(3-methylbenzyl)-1,3,4-oxadiazolyl]carbonyl)-2-(S)-methylpropyl]acetamide] |  | 43 | 11.9 | 11.3 | 1.15 | Plasma Levels (μM) 1 hr [4]: 1.46 µM; Plasma Levels (μM) 6 hr ([4]; 6 hr): 0.71 µM
16 | Cc1cccc(Cc2nnc(C(=O)[C@@H](NC(=O)CN3C(=O)NC4(Cc5ccccc5C4)C3=O)C(C)C)o2)c1 [CE2253, 4-Spiro-(2-indanyl)-2,5-imidazolidinedione-N-[1-(2-[5-(3-methylbenzyl)-1,3,4-oxadiazolyl]carbonyl)-2-(S)-methylpropyl]acetamide] |  | 11 |  |  |  | inhibition at 1 µM [3]: 31.9%; inhibition at 5 µM [3]: 45.9%; concentration at 1 h ([4]; male, Sprague-Dawley, plasma): 0.282 µM; concentration at 3 h ([4]; male, Sprague-Dawley, plasma): 0.246 µM; concentration at 6 h ([4]; male, Sprague-Dawley, plasma, 6 hr, read-out: Plasma Levels (μM) 6 hr): 0.163 µM
17 | Cc1cccc(Cc2nnc(C(=O)C(NC(=O)CN3C(=O)C(NC(=O)OCc4ccccc4)N=C(c4ccccc4Cl)c4cc(Cl)ccc43)C(C)C)o2)c1 [CE2230, (R,S)-3-Benzyloxycarbonylamino-2-oxo-5-(2-chlorophenyl)-1,4-(2′-chlorobenzodiazepine)-N-[1-(2-[5-(3-methylbenzyl)-1,3,4-oxadiazolyl]carbonyl)-2-(R,S)-methylpropyl]acetamide] |  | 2.6 | 37.7 | 37.8 | 0 | 
18 | Cc1cccc(Cc2nnc(C(=O)[C@@H](NC(=O)CN3C(=O)NC(c4ccccc4)(c4ccccc4)C3=O)C(C)C)o2)c1 [CE2252, 4,4-Diphenyl-2,5-imidazolidinedione-N-[1-(2-[5-(3-methylbenzyl)-1,3,4-oxadiazolyl]carbonyl)-2-(S)-methylpropyl]acetamide] |  | 1.9 | 45.4 | 65.2 | 0.188 | Plasma Levels (μM) 1 hr [4]: 0.114 µM; Plasma Levels (μM) 6 hr ([4]; 6 hr): 0.1 µM
19 | Cc1cccc(Cc2nnc(C(=O)[C@@H](NC(=O)Cn3c(-c4ccc(F)cc4)ccc(N)c3=O)C(C)C)o2)c1 [CE2251, 2-[5-Amino-6-oxo-2-(4-fluorophenyl)-1,6-dihydro-1-pyridinyl]-N-[1-(2-[5-(3-methylbenzyl)-1,3,4-oxadiazolyl]carbonyl)-2-(S)-methylpropyl]acetamide] |  | 0.43 | 54.1 | 74.5 | 1.11 | Plasma Levels (μM) 1 hr [4]: 1.63 µM; Plasma Levels (μM) 6 hr ([4]; 6 hr): 0.73 µM

Reference: patent US6656911B2, “Serine protease inhibitors” (Cortech, Inc., priority 1994, dated 2003)
